Laboratory results taken from paper PMC8379154, “UbiD domain dynamics underpins aromatic decarboxylation” (Nature Communications, 2021).

Assays:
BsVdcCD = biological target: T1, BsVdcCD (Bacillus subtilis, UniProt P94405); assay: overnight endpoint HPLC decarboxylation assay; format: biochemical; conditions: 5 mM substrate, 10 µM enzyme, prFMN, MnCl2, 100 mM KPi pH 6, anaerobic, 18 h
T1 construct: gene bsdC; VdcC and VdcD expressed in E. coli BL21(DE3), His tag on C-terminus of VdcC and/or N-terminus of VdcD; reconstituted in vitro with prFMN and Mn2+; with Phenolic acid decarboxylase subunit D
T1 sequence (P94405 1-473): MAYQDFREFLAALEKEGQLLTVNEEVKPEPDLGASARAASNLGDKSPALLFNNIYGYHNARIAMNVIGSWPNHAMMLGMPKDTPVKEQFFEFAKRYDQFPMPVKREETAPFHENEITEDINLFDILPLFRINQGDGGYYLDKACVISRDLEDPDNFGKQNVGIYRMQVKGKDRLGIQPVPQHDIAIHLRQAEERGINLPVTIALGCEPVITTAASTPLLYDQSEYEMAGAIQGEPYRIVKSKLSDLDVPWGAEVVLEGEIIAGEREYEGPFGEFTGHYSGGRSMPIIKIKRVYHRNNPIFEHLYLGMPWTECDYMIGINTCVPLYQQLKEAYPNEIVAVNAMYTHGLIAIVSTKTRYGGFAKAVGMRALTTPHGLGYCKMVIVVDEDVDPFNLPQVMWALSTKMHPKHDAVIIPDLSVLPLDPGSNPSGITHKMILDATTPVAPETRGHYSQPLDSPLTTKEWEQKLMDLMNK
T1 sequence (C0H3U9 1-75 partner): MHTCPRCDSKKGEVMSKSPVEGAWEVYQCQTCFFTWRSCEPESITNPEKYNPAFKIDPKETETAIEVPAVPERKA

[1] = biological target: Sedimentibacter hydroxybenzoicus VdcC, untagged (Sedimentibacter hydroxybenzoicus); assay: crystal structure; apo complexes; F222 closed (7AE4), P1 open (7AE5), P212121 ShVdcCD^V59X (7AE7); molecular replacement with E. coli UbiD domains

Row | stoichiometry N [1] | Compound | overnight endpoint HPLC decarboxylation assay (BsVdcCD)
1 | – | COc1cc(C(=O)O)cc(OC)c1O [syringic acid] | syringic acid, for which product formation could only be detected in the presence of BsVdcCD
2 | 6 | Sedimentibacter hydroxybenzoicus VdcC, untagged (enzyme) | –
3 | – | COc1cc(C(=O)O)ccc1O [vanillic acid] | the VdcC + VdcD reconstituted samples demonstrated considerable activity in contrast to isolated VdcC
